In patent US12685726B2, “Sulfoximines as inhibitors of NaV1.8” (Gruenenthal GmbH, priority 2022, dated 2026):

Molecular target: T1, human NaV 1.8 (Homo sapiens, UniProt Q9Y5Y9)
T1 construct: expressed in transfected cells; host or cells: HEK (recombinant cell line)
Assay: Automated whole-cell patch clamp (Qube384) voltage-clamp recordings of sodium currents in HEK-NaV1.8 cell line
Assay type: cell-based
Conditions: read-out: Potency category (human NaV 1.8 IC50)
Method in brief: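 HEK cells expressing NaV1.8 with b3, whole-cell automated voltage clamp at room temperature or 19° C.; CsF-based internal, pH 7.4 external. State-dependent (−120 mV, V1/2 4 s, −10 mV test pulses) and 10/20 Hz 40-pulse protocols; ~12 min compound, vehicle-corrected, IC50 by 4-parameter logistic fit.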

T1 sequence (Q9Y5Y9 whole entry): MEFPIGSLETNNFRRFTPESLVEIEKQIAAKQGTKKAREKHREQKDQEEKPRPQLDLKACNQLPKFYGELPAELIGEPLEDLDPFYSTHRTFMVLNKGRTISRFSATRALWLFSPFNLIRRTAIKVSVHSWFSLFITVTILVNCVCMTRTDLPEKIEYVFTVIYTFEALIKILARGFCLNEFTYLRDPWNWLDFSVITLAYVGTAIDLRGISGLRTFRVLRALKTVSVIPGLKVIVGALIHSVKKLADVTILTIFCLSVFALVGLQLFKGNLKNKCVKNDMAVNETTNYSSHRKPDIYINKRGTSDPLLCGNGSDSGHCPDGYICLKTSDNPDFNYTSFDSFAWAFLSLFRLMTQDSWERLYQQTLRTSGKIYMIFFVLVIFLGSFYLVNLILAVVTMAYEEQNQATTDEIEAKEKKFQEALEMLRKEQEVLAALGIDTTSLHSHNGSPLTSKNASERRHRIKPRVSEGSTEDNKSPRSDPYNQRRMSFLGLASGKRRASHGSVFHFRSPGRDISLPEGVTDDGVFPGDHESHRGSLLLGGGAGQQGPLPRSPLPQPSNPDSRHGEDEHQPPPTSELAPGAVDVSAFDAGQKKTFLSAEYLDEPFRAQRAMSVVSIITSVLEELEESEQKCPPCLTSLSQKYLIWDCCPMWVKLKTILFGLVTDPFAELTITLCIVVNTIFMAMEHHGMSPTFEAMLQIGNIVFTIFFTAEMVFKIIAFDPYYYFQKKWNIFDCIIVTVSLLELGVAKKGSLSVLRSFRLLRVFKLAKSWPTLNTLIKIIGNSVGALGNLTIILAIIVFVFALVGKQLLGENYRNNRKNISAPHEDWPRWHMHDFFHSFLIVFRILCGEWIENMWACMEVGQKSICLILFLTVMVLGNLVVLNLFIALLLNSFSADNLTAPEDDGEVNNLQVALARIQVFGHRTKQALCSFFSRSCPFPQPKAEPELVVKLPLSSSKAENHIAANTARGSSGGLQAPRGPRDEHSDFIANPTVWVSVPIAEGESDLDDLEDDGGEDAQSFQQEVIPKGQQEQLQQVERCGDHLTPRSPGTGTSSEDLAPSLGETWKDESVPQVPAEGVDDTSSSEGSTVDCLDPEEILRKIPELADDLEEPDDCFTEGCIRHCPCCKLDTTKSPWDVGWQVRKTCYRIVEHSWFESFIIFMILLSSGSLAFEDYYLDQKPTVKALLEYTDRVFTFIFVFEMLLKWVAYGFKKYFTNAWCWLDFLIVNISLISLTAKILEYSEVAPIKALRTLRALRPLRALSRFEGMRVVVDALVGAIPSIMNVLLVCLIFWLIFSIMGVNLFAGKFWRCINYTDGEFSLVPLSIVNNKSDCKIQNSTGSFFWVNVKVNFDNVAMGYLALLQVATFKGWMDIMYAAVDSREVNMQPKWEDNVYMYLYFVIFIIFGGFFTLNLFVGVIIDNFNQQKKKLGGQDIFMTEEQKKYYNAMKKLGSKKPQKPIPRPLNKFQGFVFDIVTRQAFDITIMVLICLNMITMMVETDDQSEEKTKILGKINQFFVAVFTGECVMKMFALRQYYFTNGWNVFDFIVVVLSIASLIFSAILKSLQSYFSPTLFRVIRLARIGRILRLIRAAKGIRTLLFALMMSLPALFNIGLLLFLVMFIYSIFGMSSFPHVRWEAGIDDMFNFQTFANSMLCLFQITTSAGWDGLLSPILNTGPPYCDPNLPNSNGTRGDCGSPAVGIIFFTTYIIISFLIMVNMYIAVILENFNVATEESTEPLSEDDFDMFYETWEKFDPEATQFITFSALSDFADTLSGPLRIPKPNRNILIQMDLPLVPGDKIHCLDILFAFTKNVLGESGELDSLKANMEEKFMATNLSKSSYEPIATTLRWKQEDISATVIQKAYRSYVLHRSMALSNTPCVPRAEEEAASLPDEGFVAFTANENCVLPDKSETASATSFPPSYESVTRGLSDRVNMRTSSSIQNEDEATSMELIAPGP

| Compound | IC50 |
| --- | --- |
| Cc1cc(NC(=O)c2c(C(F)(F)F)c(C3CC3)nn2CC2(C)CC(F)(F)C2)cc(S(C)(=N)=O)n1 (single isomer, unassigned) [Example 50b, 3-cyclopropyl-1-((3,3-difluoro-1-methylcyclobutyl)methyl)-N-(2-methyl-6-(S-methylsulfonimidoyl)pyridin-4-yl)-4-(trifluoromethyl)-1H-pyrazole-5-carboxamide] | ≤ 100 nM |
| CC1(Cn2nc(C3(F)CC3)c(C(F)F)c2C(=O)Nc2cccc(S(C)(=N)=O)c2)CC(F)(F)C1 (single isomer, unassigned) [Example 135a, 1-((3,3-Difluoro-1-methylcyclobutyl)methyl)-4-(difluoromethyl)-3-(1-fluorocyclopropyl)-N-(3-(S-methylsulfonimidoyl)phenyl)-1H-pyrazole-5-carboxamide] | ≤ 100 nM |
| CC1(Cn2nc(C3CC3F)c(C(F)(F)F)c2C(=O)Nc2ccnc(S(C)(=N)=O)c2)CC(F)(F)C1 (single isomer, unassigned) [Example 62b, 1-((3,3-Difluoro-1-methylcyclobutyl)methyl)-3-(2-fluorocyclopropyl)-N-(2-(S-methylsulfonimidoyl)pyridin-4-yl)-4-(trifluoromethyl)-1H-pyrazole-5-carboxamide] | ≤ 100 nM |
| CC1(Cn2nc(C(C)(F)F)c(C(F)(F)F)c2C(=O)Nc2ccnc(S(C)(=N)=O)c2)CC(F)(F)C1 (single isomer, unassigned) [Example 75b, 1-((3,3-difluoro-1-methylcyclobutyl)methyl)-3-(1,1-difluoroethyl)-N-(2-(S-methylsulfonimidoyl)pyridin-4-yl)-4-(trifluoromethyl)-1H-pyrazole-5-carboxamide] | ≤ 100 nM |
| CS(=N)(=O)c1cc(NC(=O)c2c(C(F)(F)F)c(C3CC3)nn2CC23CC2CC(F)(F)C3)ccn1 (single isomer, unassigned) [Example 95b, 3-Cyclopropyl-1-((3,3-difluorobicyclo[3.1.0]hexan-1-yl)methyl)-N-(2-(S-methylsulfonimidoyl)pyridin-4-yl)-4-(trifluoromethyl)-1H-pyrazole-5-carboxamide] | ≤ 100 nM |
| CC1(Cn2nc(C34CC(F)(C3)C4)c(C(F)(F)F)c2C(=O)Nc2ccnc(S(C)(=N)=O)c2)CC(F)(F)C1 (single isomer, unassigned) [Example 110b, 1-((3,3-Difluoro-1-methylcyclobutyl)methyl)-3-(3-fluorobicyclo[1.1.1]pentan-1-yl)-N-(2-(S-methylsulfonimidoyl)pyridin-4-yl)-4-(trifluoromethyl)-1H-pyrazole-5-carboxamide] | ≤ 100 nM |
| CC1(Cn2nc(C3CC3)c(C(F)(F)F)c2C(=O)Nc2ccnc(S(C)(=N)=O)c2)CC(F)(F)C1 (single isomer, unassigned) [Example 1b, 3-cyclopropyl-1-((3,3-difluoro-1-methylcyclobutyl)methyl)-N-(2-(S-methylsulfonimidoyl)pyridin-4-yl)-4-(trifluoromethyl)-1H-pyrazole-5-carboxamide] | ≤ 100 nM |
